Measurements reported in ChEMBL document CHEMBL1140899, “Computational studies of epidermal growth factor receptor: docking reliability, three-dimensional quantitative structure-activity relationship analysis, and virtual screening studies” (J Med Chem, 2009).
Active and inactive are the calls of the source. The calls are words filed in the database; no cut-off is given here.

biological target: T1, Epidermal growth factor receptor (Homo sapiens, UniProt P00533); assay: Inhibition of human recombinant EGFR at 100 uM; conditions: not given
T1 sequence (P00533 whole entry): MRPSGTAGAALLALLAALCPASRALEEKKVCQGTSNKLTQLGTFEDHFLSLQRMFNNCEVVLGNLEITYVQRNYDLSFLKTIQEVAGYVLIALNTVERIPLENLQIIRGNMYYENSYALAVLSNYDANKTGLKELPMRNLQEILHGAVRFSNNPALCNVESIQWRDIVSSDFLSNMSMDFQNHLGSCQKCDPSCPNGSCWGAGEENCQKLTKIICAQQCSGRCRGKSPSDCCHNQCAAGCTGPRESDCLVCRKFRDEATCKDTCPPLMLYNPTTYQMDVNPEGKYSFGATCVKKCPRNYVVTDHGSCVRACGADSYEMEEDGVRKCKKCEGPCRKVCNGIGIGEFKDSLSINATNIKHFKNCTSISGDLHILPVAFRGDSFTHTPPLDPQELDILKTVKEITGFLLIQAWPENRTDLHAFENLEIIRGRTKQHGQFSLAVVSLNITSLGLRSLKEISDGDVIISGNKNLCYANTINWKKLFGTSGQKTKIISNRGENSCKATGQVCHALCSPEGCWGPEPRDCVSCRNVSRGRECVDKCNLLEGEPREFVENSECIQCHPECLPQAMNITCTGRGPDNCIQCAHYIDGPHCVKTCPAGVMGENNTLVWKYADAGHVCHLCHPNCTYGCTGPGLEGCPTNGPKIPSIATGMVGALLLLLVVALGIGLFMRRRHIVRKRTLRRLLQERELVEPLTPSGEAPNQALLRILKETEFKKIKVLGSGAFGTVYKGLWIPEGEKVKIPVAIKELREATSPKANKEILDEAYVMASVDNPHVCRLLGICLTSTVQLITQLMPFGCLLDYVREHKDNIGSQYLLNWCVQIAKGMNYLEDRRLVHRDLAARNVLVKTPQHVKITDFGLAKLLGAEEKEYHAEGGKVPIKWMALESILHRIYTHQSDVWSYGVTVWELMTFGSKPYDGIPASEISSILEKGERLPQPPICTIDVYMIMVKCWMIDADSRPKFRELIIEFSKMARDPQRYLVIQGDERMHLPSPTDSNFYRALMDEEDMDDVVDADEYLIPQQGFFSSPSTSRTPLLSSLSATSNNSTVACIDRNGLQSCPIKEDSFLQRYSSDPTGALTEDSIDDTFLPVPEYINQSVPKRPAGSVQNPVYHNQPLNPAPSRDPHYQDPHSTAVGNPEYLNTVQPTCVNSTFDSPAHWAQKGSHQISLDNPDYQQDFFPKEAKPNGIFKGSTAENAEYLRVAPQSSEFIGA

inhibition	Structure (SMILES)
0%	Nc1ccc(Nc2ccc([N+](=O)[O-])c3ncnc(O)c23)cc1
0%	Cc1cccc(Nc2ccc([N+](=O)[O-])c3ncnc(O)c23)c1
0%	COc1ccc([N+](=O)[O-])c2ncnc(O)c12

Structure (SMILES)	inhibition
O=[N+]([O-])c1ccc(N2CCCC2)c2c(O)ncnc12	0%

biological target: T1, Epidermal growth factor receptor; assay: Inhibition of human recombinant EGFR up to 100 uM; conditions: not given

Activity	Structure (SMILES)
inactive	FC(F)(F)Oc1ccc(Nc2ccnc3cc(Cl)ccc23)cc1

biological target: T1, Epidermal growth factor receptor; assay: not given; conditions: at 100 µM

inhibition	Structure (SMILES)
48%	O=c1[nH]nc2n1-c1ccccc1SC2
44%	CC1=NNC2OC(N)=C(C#N)C(c3ccc4c(c3)OCO4)C12 (stereo unspecified)
100%	COc1cc2ncnc(Nc3cccc(C)c3)c2cc1OC
55%	CN1CCN(c2ccccc2/C=C2/C(=O)Nc3ccccc32)CC1
80%	CCOC(=O)c1ccc(N2CCOCC2)c(NS(=O)(=O)c2cc(Br)c(Cl)s2)c1
77%	FC(F)(F)c1ccc(-n2cnnc2SCc2nc(COc3c(Cl)cccc3Cl)no2)cc1
53%	O=c1[nH]nc(SCCS(=O)(=O)c2cccc(C(F)(F)F)c2)n1-c1ccc(OCc2ccccc2)cc1

biological target: T1, Epidermal growth factor receptor; assay: not given; conditions: not given

Structure (SMILES)	IC50
C=CC(=O)NC1=CC=C2N=CN=C(Nc3cccc(C)c3)C21 (stereo unspecified)	0.417 nM
O=C(Nc1ccc(Br)cc1)Nc1ncnc2nn3ccccc3c12	10000 nM
C=CC(=O)NC1=CC=C2N=CN=C(Nc3ccc(OCc4ccccc4)cc3)C21 (stereo unspecified)	3.63 nM
COc1cc2ncnc(Nc3ccc(F)c(Cl)c3)c2cc1CN(C(C)C)[C@@H](C)C(N)=O	< 1 nM
O=C(Nc1cccc([N+](=O)[O-])c1)Nc1ncnc2nn3ccccc3c12	10000 nM
O=C(Nc1cccc(C(F)(F)F)c1)Nc1ncnc2nn3ccccc3c12	10000 nM
C=CC(=O)Nc1nc2c(Cc3ccc(F)c(Cl)c3)ncnc2cc1CCCCN1CCOCC1	2.69 nM
COc1cc2nccc(Nc3ccc(F)c(Cl)c3)c2cc1NC(=O)/C=C/CN1CCOCC1	13600 nM
C=CC(=O)Nc1cc2c(Cc3cccc(Br)c3)ncnc2cc1OCCCN1CCC(C)CC1	1.7 nM
C=CC(=O)C(CCCN1CCOCC1)c1cc2c(Nc3cccc(Br)c3)ncnc2cn1 (stereo unspecified)	2.69 nM
COc1cc2ncnc(Nc3ccc(F)c(Cl)c3)c2cc1CN(C)[C@H](C)C(N)=O	9 nM
C=CC(=O)Nc1ccc2ncnc(Cc3ccc(F)c(Cl)c3)c2n1	0.759 nM
O=C(/C=C/CC(=O)Nc1ccc2ncnc(Nc3cccc(Br)c3)c2c1)Nc1ccc2c(Nc3cccc(Br)c3)ncnc2c1	0.447 nM
O=S(=O)(CO)Nc1cc2c(Nc3cccc(Br)c3)ncnc2cn1	93.3 nM
COC[C@H]1Oc2cc3ncnc(Nc4cccc(Cl)c4)c3cc2O[C@@H]1COC	10.1 nM
O=C(/C=C/C(=O)NCCCn1ccnc1)Cc1cc2c(Nc3cccc(Br)c3)ncnc2cn1	0.562 nM
COc1cc2nccc(Nc3ccc(F)c(Cl)c3)c2cc1NC(=O)/C=C/C(C)N1CCOCC1 (stereo unspecified)	10600 nM
COc1cc2ncnc(Nc3ccc(F)c(Cl)c3)c2cc1CN1CC[C@@H](C(N)=O)C1	6 nM
C=CC(=O)NC1=NC=C2N=CN=C(Nc3ccc(F)c(Cl)c3)C21 (stereo unspecified)	0.776 nM
O=C(CCCN1Cc2cc3c(Nc4cccc(Br)c4)ncnc3cc21)N1CCOCC1	8.71 nM
O=C(Cc1c[nH]c2cc3ncnc(Nc4cccc(Br)c4)c3cc12)N1CCOCC1	4.79 nM
O=C(Nc1ccc(C(F)(F)F)cc1)Nc1ncnc2nn3ccccc3c12	10000 nM
C=CC(=O)Nc1nc2c(Cc3ccc(F)c(Cl)c3)ncnc2cc1/C=C/CCN1CCOCC1	0.158 nM
COc1cc2ncnc(Nc3ccc(F)c(Cl)c3)c2cc1CNC(=O)[C@H]1CCCCN1C	8 nM

Structure (SMILES)	IC50
O=C(CCn1ncc2cc3c(Nc4cccc(Br)c4)ncnc3cc21)N1CCOCC1	3.72 nM
C=CC(=O)Nc1nc2c(Cc3ccc(F)c(Cl)c3)ncnc2cc1OCCCN1CCC(C)CC1	6.61 nM
C=CC(=O)Nc1cc2c(Cc3cccc(C)c3)ncnc2cc1OCCCN1CCOCC1	1.51 nM
Nc1ncnc2nn3ccccc3c12	10000 nM
C=CC(=O)NC1=CC=C2N=CN=C(Nc3ccc(Oc4ccccc4)cc3)C21 (stereo unspecified)	5.75 nM
CCOC(=O)c1ccc(N2CCOCC2)c(NS(=O)(=O)c2cc(Br)c(Cl)s2)c1	11100 nM
FC(F)(F)c1ccc(-n2cnnc2SCc2nc(COc3c(Cl)cccc3Cl)no2)cc1	6300 nM
COc1cc(NC(=O)/C=C/CN2CCOCC2)cc2c(Nc3cccc(Br)c3)ccnc12	5390 nM
C=CC(=O)NC1=CC=C2N=CN=C(Nc3cccc(Cl)c3)C21 (stereo unspecified)	1.58 nM
CS(=O)(=O)CCN(CCCCOc1ccc2ncnc(Nc3ccc(OCc4ccccc4)cc3)c2c1)C(=O)C(F)(F)F	234 nM
COc1cc2nccc(Nc3ccc(F)c(Cl)c3)c2cc1NC(=O)/C=C/C(C)N(C)C (stereo unspecified)	5220 nM
C=CC(=O)Nc1cc2ncnc(Nc3cccc(Br)c3)c2[nH]1	1.1 nM
Brc1cccc(Nc2ncnc3cc4c(cc23)CN4)c1	0.437 nM
C=CC(=O)Nc1ccc2ncnc(Cc3cccc(C)c3)c2c1	0.417 nM
N#Cc1cccc(NC(=O)Nc2ncnc3nn4ccccc4c23)c1	10000 nM
C=CC(=O)Nc1cc2c(Cc3cccc(Br)c3)ncnc2cc1OCCCn1ccnc1	3.02 nM
C=CC(=O)NC1=NC=C2N=CN=C(Nc3ccc(F)c(Br)c3)C21 (stereo unspecified)	0.724 nM
C=CC(=O)C(CCCN1CCOCC1)c1ccc2ncnc(Nc3cccc(Br)c3)c2c1 (stereo unspecified)	3.31 nM
C=CC(=O)NC1=CC=C2N=CN=C(Nc3cccc(C(F)(F)F)c3)C21 (stereo unspecified)	0.912 nM
C/C=C/C(=O)Nc1cc2c(Nc3ccc(F)c(Cl)c3)ccnc2cc1CC	7500 nM
O=C(Nc1ccc(F)cc1)Nc1ncnc2nn3ccccc3c12	10000 nM
C=CC(=O)NC1=NC=C2N=CN=C(Nc3cccc(C)c3)C21 (stereo unspecified)	0.479 nM
COc1cc2ncnc(Nc3ccc(F)c(Cl)c3)c2cc1CN(C)[C@@H](C)C(N)=O	8 nM

Results, then the compound that gave them:

IC50	Structure (SMILES)
3.89 nM	C=CC(=O)Nc1cc2c(Cc3cccc(Br)c3)ncnc2cc1OCCCCN(C)C
0.372 nM	O=C(O)/C=C/C(=O)Cc1ccc2ncnc(Nc3cccc(Br)c3)c2c1
0.251 nM	C=CC(=O)Nc1ccc2c(Nc3cccc(Br)c3)ncnc2c1
20 nM	C=CC(=O)N(C)c1nc2c(Cc3ccc(F)c(Cl)c3)ncnc2cc1OCCCN1CCOCC1
0.794 nM	CN1Cc2cc3c(Nc4cccc(Br)c4)ncnc3cc21
2.69 nM	CCOC(=O)/C=C/C(=O)Cc1ccc2ncnc(Nc3cccc(Br)c3)c2c1
1.2 nM	C=C(C)C(=O)Cc1ccc2ncnc(Nc3cccc(Br)c3)c2c1
0.692 nM	O=C(/C=C\Cl)Cc1cc2c(Nc3cccc(Br)c3)ncnc2cn1
4.6 nM	COc1cc2ncnc(Nc3cccc(C)c3)c2cc1OC
0.692 nM	C=CC(=O)Nc1ccc2ncnc(Cc3ccc(F)c(Br)c3)c2c1
40.7 nM	CN(C)CCN1Cc2cc3c(Nc4cccc(Br)c4)ncnc3cc21
0.17 nM	C=CC(=O)C(C)c1cc2c(Nc3cccc(Br)c3)ncnc2cn1 (stereo unspecified)
26.9 nM	C=CC(=O)Nc1ccc2ncnc(Cc3ccc(OCCN(C)C)c(Br)c3)c2c1
0.759 nM	C=CC(=O)Nc1ccc2ncnc(Cc3ccc(F)c(Cl)c3)c2c1
1.45 nM	CC(C(=O)/C=C/C(=O)NCCCN(C)C)c1cc2c(Nc3cccc(Br)c3)ncnc2cn1 (stereo unspecified)
1.58 nM	OCC(O)CN1Cc2cc3c(Nc4cccc(Br)c4)ncnc3cc21 (stereo unspecified)
1.51 nM	C=CC(=O)Nc1cc2c(Cc3ccc(F)c(Cl)c3)ncnc2cc1OCCCN1CCOCC1
10300 nM	CCOc1cc2nccc(Nc3cccc(Br)c3)c2cc1NC(=O)/C=C/CN1CCOCC1
1.82 nM	C=CC(=O)Nc1cc2c(Cc3ccc(F)c(Br)c3)ncnc2cc1OCCCN1CCOCC1
0.603 nM	O=C(O)CCNc1cc2ncnc(Nc3cccc(Br)c3)c2cn1
1.58 nM	C=C=CC(=O)Cc1ccc2ncnc(Nc3cccc(Br)c3)c2c1

IC50	Structure (SMILES)
1.58 nM	C=C(C)C(=O)Cc1cc2c(Nc3cccc(Br)c3)ncnc2cn1
0.912 nM	C=CC(=O)Cc1cc2c(Nc3cccc(Br)c3)ncnc2cn1
8.6 nM	CN(N)C/C=C/C(=O)Nc1cc2c(Nc3cccc(Br)c3)ccnc2cn1
5.13 nM	O=C(O)CN1Cc2cc3c(Nc4cccc(Br)c4)ncnc3cc21
0.708 nM	C=CC(=O)Nc1ccc2ncnc(Cc3cccc(Br)c3)c2c1
0.0891 nM	CN(C)c1cc2ncnc(Nc3cccc(Br)c3)c2cn1
1.7 nM	C=CC(=O)Nc1cc2c(Cc3ccc(F)c(Cl)c3)ncnc2cc1OCCOCCCCO
0.776 nM	C=CC(=O)Nc1cc2c(Cc3cccc(Br)c3)ncnc2cc1SCCCN(CC)CC
0.676 nM	C/C=C/C(=O)Nc1ccc2c(Nc3cccc(Br)c3)ncnc2c1
0.724 nM	CCN(CC)CCCNC(=O)/C=C/C(=O)Cc1cc2c(Nc3cccc(Br)c3)ncnc2cn1
2 nM	C=CC(=O)Nc1cc2c(Cc3cccc(C)c3)ncnc2cc1OCCCN1CCC(C)CC1
44.7 nM	C=CC(=O)Nc1ccc2ncnc(Cc3ccc(CN(C)C)c(Br)c3)c2c1
0.977 nM	C=CC(=O)Nc1nc2c(Cc3ccc(F)c(Cl)c3)ncnc2cc1OCCOC
1.2 nM	C=CC(=O)Nc1cc2ncnc(Nc3ccc(F)c(Br)c3)c2[nH]1
0.955 nM	C=CC(=O)Nc1nc2c(Cc3ccc(F)c(Cl)c3)ncnc2cc1OC
0.501 nM	C/C=C/C(=O)Cc1cc2c(Nc3cccc(Br)c3)ncnc2cn1
0.537 nM	C=CC(=O)Nc1cc2ncnc(Nc3cccc(Cl)c3)c2cn1
1.51 nM	CCOC(=O)/C=C/C(=O)Cc1cc2c(Nc3cccc(Br)c3)ncnc2cn1
0.55 nM	C/C=C/C(=O)Cc1ccc2ncnc(Nc3cccc(Br)c3)c2c1
1.1 nM	CN(C)CCCNC(=O)/C=C/C(=O)Cc1cc2c(Nc3cccc(Br)c3)ncnc2cn1
1.2 nM	CC(=O)/C=C/C(=O)Cc1ccc2ncnc(Nc3cccc(Br)c3)c2c1
